According to ChEMBL document CHEMBL4602695, “Discovery and SARs of 5-Chloro-N4-phenyl-N2-(pyridin-2-yl)pyrimidine-2,4-diamine Derivatives as Oral Available and Dual CDK 6 and 9 Inhibitors with Potent Antitumor Activity” (J Med Chem, 2020):
Activity calls are given as the source filed them. The calls are words filed in the database; no cut-off is given here.

Tested on: MDA-MB-231
Assay: Antiproliferative activity against human MDA-MB-231 cells assessed as inhibition of cell proliferation measured after 48 hrs by CCK8 assay
Assay type: functional, cell-based
Details: not given

SMILES | inhibition
CN1CCN(c2ccc(Nc3ncc(Cl)c(Nc4ccccc4F)n3)nc2)CC1 | Active

Same assay, conditions: MDA-MB-231, 48 h

SMILES | GI50 [µM]
CCN1CCN(Cc2ccc(Nc3ncc(F)c(-c4cc(F)c5nc(C)n(C(C)C)c5c4)n3)nc2)CC1 [ABEMACICLIB] | 3.45
COc1ccc(Nc2nc(Nc3ccc(N4CCN(C)CC4)cn3)ncc2Cl)cc1 | 8.02
CN1CCN(c2ccc(Nc3ncc(Cl)c(Nc4ccccc4)n3)nc2)CC1 | 37.4
Cc1ccccc1Nc1nc(Nc2ccc(N3CCN(C)CC3)cn2)ncc1Cl | 7.47
COc1cccc(Nc2nc(Nc3ccc(N4CCN(C)CC4)cn3)ncc2Cl)c1 | 8.51
Cc1ccccc1Nc1nc(Nc2ccc(N3CCOCC3)cc2)ncc1Cl | 11.3
Cc1ccccc1Nc1nc(NCCc2cccnc2)ncc1Cl | > 100
Cc1ccccc1Nc1nc(NC2CC2)ncc1Cl | > 100
CN1CCN(c2ccc(Nc3ncc(Cl)c(NCCc4ccc(F)cc4)n3)nc2)CC1 | 28.5
Cc1ccccc1Nc1nc(Nc2ccc(N3CCCCC3)cn2)ncc1Cl | > 100
Cc1ccccc1Nc1nc(NCc2ccccc2)ncc1Cl | > 100
Cc1cccc(Nc2nc(Nc3ccc(N4CCN(C)CC4)cn3)ncc2Cl)c1 | 5.27
Cc1ccccc1Nc1nc(Nc2cc(Cl)ccn2)ncc1Cl | 52.4
CCN1CCN(c2ccc(Nc3ncc(Cl)c(Nc4ccccc4C)n3)nc2)CC1 | > 100

Tested on: MDA-MB-231
Assay: Antitumor activity against human MDA-MB-231 cells xenografted in BALB/c nu/nu mouse assessed as tumor growth inhibition at 45 mg/kg, po administered once daily for 3 weeks and measured at 3 days interval during compound dosing
Assay type: functional, organism-based
Details: not given

SMILES | TGI
CCN1CCN(Cc2ccc(Nc3ncc(F)c(-c4cc(F)c5nc(C)n(C(C)C)c5c4)n3)nc2)CC1 [ABEMACICLIB] | Active

Tested on: MCF7
Assay: Antiproliferative activity against human MCF7 cells assessed as inhibition of cell proliferation measured after 48 hrs by CCK8 assay
Assay type: functional, cell-based
Details: not given

SMILES | inhibition
CN1CCN(c2ccc(Nc3ncc(Cl)c(Nc4ccccc4F)n3)nc2)CC1 | Active

Same assay, conditions: MCF7, 48 h

SMILES | GI50 [µM]
CCN1CCN(Cc2ccc(Nc3ncc(F)c(-c4cc(F)c5nc(C)n(C(C)C)c5c4)n3)nc2)CC1 [ABEMACICLIB] | 4.01
COc1ccc(Nc2nc(Nc3ccc(N4CCN(C)CC4)cn3)ncc2Cl)cc1 | 8.45
CN1CCN(c2ccc(Nc3ncc(Cl)c(Nc4ccccc4)n3)nc2)CC1 | 51.8
Cc1ccccc1Nc1nc(Nc2ccc(N3CCN(C)CC3)cn2)ncc1Cl | 5.21
COc1cccc(Nc2nc(Nc3ccc(N4CCN(C)CC4)cn3)ncc2Cl)c1 | 7.54
Cc1ccccc1Nc1nc(Nc2ccc(N3CCOCC3)cc2)ncc1Cl | > 100
Cc1ccccc1Nc1nc(NCCc2cccnc2)ncc1Cl | > 100
Cc1ccccc1Nc1nc(NC2CC2)ncc1Cl | > 100
CN1CCN(c2ccc(Nc3ncc(Cl)c(NCCc4ccc(F)cc4)n3)nc2)CC1 | > 100
Cc1ccccc1Nc1nc(Nc2ccc(N3CCCCC3)cn2)ncc1Cl | 21.4
Cc1ccccc1Nc1nc(NCc2ccccc2)ncc1Cl | > 100
Cc1cccc(Nc2nc(Nc3ccc(N4CCN(C)CC4)cn3)ncc2Cl)c1 | 7.16
Cc1ccccc1Nc1nc(Nc2cc(Cl)ccn2)ncc1Cl | > 100
CCN1CCN(c2ccc(Nc3ncc(Cl)c(Nc4ccccc4C)n3)nc2)CC1 | > 100

Tested on: not listed separately
Assay: Cytotoxicity against human L02 cells assessed as inhibition of cell proliferation measured after 48 hrs by CCK8 assay
Assay type: cell-based
Details: not given

SMILES | GI50 at 48 h [µM]
COc1ccc(Nc2nc(Nc3ccc(N4CCN(C)CC4)cn3)ncc2Cl)cc1 | 3.15
CN1CCN(c2ccc(Nc3ncc(Cl)c(Nc4ccccc4)n3)nc2)CC1 | 7.99
Cc1ccccc1Nc1nc(Nc2ccc(N3CCN(C)CC3)cn2)ncc1Cl | 5.98
COc1cccc(Nc2nc(Nc3ccc(N4CCN(C)CC4)cn3)ncc2Cl)c1 | 3.47
Cc1ccccc1Nc1nc(Nc2ccc(N3CCOCC3)cc2)ncc1Cl | 5.37
Cc1ccccc1Nc1nc(NCCc2cccnc2)ncc1Cl | > 100
Cc1ccccc1Nc1nc(NC2CC2)ncc1Cl | > 100
CN1CCN(c2ccc(Nc3ncc(Cl)c(NCCc4ccc(F)cc4)n3)nc2)CC1 | > 100
Cc1ccccc1Nc1nc(Nc2ccc(N3CCCCC3)cn2)ncc1Cl | 42.4
Cc1ccccc1Nc1nc(NCc2ccccc2)ncc1Cl | > 100
Cc1cccc(Nc2nc(Nc3ccc(N4CCN(C)CC4)cn3)ncc2Cl)c1 | 6.08
Cc1ccccc1Nc1nc(Nc2cc(Cl)ccn2)ncc1Cl | 41.5
CCN1CCN(c2ccc(Nc3ncc(Cl)c(Nc4ccccc4C)n3)nc2)CC1 | > 100

Biological target: CDK2/Cyclin A2 (Homo sapiens, UniProt P24941)
Assay: not given
Design: species or system Sf9
Details: not given

SMILES | IC50 [µM]
COc1ccc(Nc2nc(Nc3ccc(N4CCN(C)CC4)cn3)ncc2Cl)cc1 | 6.11
CN1CCN(c2ccc(Nc3ncc(Cl)c(Nc4ccccc4)n3)nc2)CC1 | > 10
Cc1ccccc1Nc1nc(Nc2ccc(N3CCN(C)CC3)cn2)ncc1Cl | > 10
COc1cccc(Nc2nc(Nc3ccc(N4CCN(C)CC4)cn3)ncc2Cl)c1 | 0.701
Cc1ccccc1Nc1nc(Nc2ccc(N3CCOCC3)cc2)ncc1Cl | 2.68
Cc1ccccc1Nc1nc(NCCc2cccnc2)ncc1Cl | > 10
Cc1ccccc1Nc1nc(NC2CC2)ncc1Cl | > 10
CN1CCN(c2ccc(Nc3ncc(Cl)c(NCCc4ccc(F)cc4)n3)nc2)CC1 | > 10
Cc1ccccc1Nc1nc(Nc2ccc(N3CCCCC3)cn2)ncc1Cl | 4.84
Cc1ccccc1Nc1nc(NCc2ccccc2)ncc1Cl | > 10
Cc1cccc(Nc2nc(Nc3ccc(N4CCN(C)CC4)cn3)ncc2Cl)c1 | > 10
Cc1ccccc1Nc1nc(Nc2cc(Cl)ccn2)ncc1Cl | > 10
CCN1CCN(c2ccc(Nc3ncc(Cl)c(Nc4ccccc4C)n3)nc2)CC1 | 9.18

Tested on: Jurkat
Assay: Antiproliferative activity against human Jurkat cells assessed as inhibition of cell proliferation measured after 48 hrs by CCK8 assay
Assay type: functional, cell-based
Details: not given

SMILES | GI50 [µM] | inhibition
CCN1CCN(Cc2ccc(Nc3ncc(F)c(-c4cc(F)c5nc(C)n(C(C)C)c5c4)n3)nc2)CC1 [ABEMACICLIB] | 4.63 | 
COc1ccc(Nc2nc(Nc3ccc(N4CCN(C)CC4)cn3)ncc2Cl)cc1 | 11.2 | 
CN1CCN(c2ccc(Nc3ncc(Cl)c(Nc4ccccc4)n3)nc2)CC1 | > 100 | 
Cc1ccccc1Nc1nc(Nc2ccc(N3CCN(C)CC3)cn2)ncc1Cl | 8.08 | 
COc1cccc(Nc2nc(Nc3ccc(N4CCN(C)CC4)cn3)ncc2Cl)c1 | 15.8 | 
Cc1ccccc1Nc1nc(Nc2ccc(N3CCOCC3)cc2)ncc1Cl | 8.36 | 
Cc1ccccc1Nc1nc(NCCc2cccnc2)ncc1Cl | > 100 | 
Cc1ccccc1Nc1nc(NC2CC2)ncc1Cl | > 100 | 
CN1CCN(c2ccc(Nc3ncc(Cl)c(NCCc4ccc(F)cc4)n3)nc2)CC1 | > 100 | 
Cc1ccccc1Nc1nc(Nc2ccc(N3CCCCC3)cn2)ncc1Cl | > 100 | 
Cc1ccccc1Nc1nc(NCc2ccccc2)ncc1Cl | > 100 | 
Cc1cccc(Nc2nc(Nc3ccc(N4CCN(C)CC4)cn3)ncc2Cl)c1 | 15.3 | 
Cc1ccccc1Nc1nc(Nc2cc(Cl)ccn2)ncc1Cl | 39.6 | 
CCN1CCN(c2ccc(Nc3ncc(Cl)c(Nc4ccccc4C)n3)nc2)CC1 | > 100 | 
CN1CCN(c2ccc(Nc3ncc(Cl)c(Nc4ccccc4F)n3)nc2)CC1 |  | Active

Biological target: CDK6/cyclin D3 (Homo sapiens, UniProt Q00534)
Sequence (P30281 whole entry): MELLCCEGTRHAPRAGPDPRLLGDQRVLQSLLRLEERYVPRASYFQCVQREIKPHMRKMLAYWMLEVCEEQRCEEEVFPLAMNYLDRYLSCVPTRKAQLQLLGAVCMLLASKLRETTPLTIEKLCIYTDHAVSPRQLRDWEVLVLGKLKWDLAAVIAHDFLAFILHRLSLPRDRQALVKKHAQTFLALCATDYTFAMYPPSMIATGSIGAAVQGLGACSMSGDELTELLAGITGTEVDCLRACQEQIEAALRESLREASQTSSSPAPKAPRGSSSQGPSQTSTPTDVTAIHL
Sequence (Q00534 whole entry): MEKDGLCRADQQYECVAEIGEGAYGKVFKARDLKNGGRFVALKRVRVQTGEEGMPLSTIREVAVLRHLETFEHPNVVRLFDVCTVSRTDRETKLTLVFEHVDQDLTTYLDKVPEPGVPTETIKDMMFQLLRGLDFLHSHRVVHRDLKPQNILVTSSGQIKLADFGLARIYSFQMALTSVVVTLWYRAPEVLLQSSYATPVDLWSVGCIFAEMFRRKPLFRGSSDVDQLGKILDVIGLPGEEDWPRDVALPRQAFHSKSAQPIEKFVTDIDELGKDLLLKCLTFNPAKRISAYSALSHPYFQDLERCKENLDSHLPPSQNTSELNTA
Assay: not given
Design: species or system Sf9
Details: not given

SMILES | IC50 [µM]
COc1ccc(Nc2nc(Nc3ccc(N4CCN(C)CC4)cn3)ncc2Cl)cc1 | 0.606
CN1CCN(c2ccc(Nc3ncc(Cl)c(Nc4ccccc4)n3)nc2)CC1 | 0.113
Cc1ccccc1Nc1nc(Nc2ccc(N3CCN(C)CC3)cn2)ncc1Cl | 0.0157 to 0.016
COc1cccc(Nc2nc(Nc3ccc(N4CCN(C)CC4)cn3)ncc2Cl)c1 | 0.103
Cc1ccccc1Nc1nc(Nc2ccc(N3CCOCC3)cc2)ncc1Cl | 1.69
Cc1ccccc1Nc1nc(NCCc2cccnc2)ncc1Cl | > 10
Cc1ccccc1Nc1nc(NC2CC2)ncc1Cl | > 10
CN1CCN(c2ccc(Nc3ncc(Cl)c(NCCc4ccc(F)cc4)n3)nc2)CC1 | > 10
Cc1ccccc1Nc1nc(Nc2ccc(N3CCCCC3)cn2)ncc1Cl | > 10
Cc1ccccc1Nc1nc(NCc2ccccc2)ncc1Cl | > 10
Cc1cccc(Nc2nc(Nc3ccc(N4CCN(C)CC4)cn3)ncc2Cl)c1 | 0.08
Cc1ccccc1Nc1nc(Nc2cc(Cl)ccn2)ncc1Cl | > 10
CCN1CCN(c2ccc(Nc3ncc(Cl)c(Nc4ccccc4C)n3)nc2)CC1 | > 10

Biological target: CDK6/cyclin D3 (Homo sapiens) (UniProt P30281+Q00534)
Assay: not given
Details: Sf9

SMILES | inhibition
CN1CCN(c2ccc(Nc3ncc(Cl)c(Nc4ccccc4F)n3)nc2)CC1 | inactive

Biological target: CDK9/Cyclin K (Homo sapiens) (UniProt P50750+O75909)
Assay: not given
Details: Sf9

SMILES | inhibition
CN1CCN(c2ccc(Nc3ncc(Cl)c(Nc4ccccc4F)n3)nc2)CC1 | inactive

Biological target: CDK9/Cyclin K (Homo sapiens, UniProt P50750)
Sequence (P50750 whole entry): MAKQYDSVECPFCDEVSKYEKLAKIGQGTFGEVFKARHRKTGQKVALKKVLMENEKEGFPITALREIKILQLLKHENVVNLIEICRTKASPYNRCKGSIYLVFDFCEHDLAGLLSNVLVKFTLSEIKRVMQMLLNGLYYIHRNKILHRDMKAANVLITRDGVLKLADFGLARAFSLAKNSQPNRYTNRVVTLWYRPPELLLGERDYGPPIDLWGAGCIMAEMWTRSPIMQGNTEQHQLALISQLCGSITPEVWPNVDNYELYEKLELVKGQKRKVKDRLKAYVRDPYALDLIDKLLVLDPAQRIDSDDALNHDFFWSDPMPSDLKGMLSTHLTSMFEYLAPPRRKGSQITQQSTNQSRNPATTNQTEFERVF
Sequence (O75909 whole entry, further chain): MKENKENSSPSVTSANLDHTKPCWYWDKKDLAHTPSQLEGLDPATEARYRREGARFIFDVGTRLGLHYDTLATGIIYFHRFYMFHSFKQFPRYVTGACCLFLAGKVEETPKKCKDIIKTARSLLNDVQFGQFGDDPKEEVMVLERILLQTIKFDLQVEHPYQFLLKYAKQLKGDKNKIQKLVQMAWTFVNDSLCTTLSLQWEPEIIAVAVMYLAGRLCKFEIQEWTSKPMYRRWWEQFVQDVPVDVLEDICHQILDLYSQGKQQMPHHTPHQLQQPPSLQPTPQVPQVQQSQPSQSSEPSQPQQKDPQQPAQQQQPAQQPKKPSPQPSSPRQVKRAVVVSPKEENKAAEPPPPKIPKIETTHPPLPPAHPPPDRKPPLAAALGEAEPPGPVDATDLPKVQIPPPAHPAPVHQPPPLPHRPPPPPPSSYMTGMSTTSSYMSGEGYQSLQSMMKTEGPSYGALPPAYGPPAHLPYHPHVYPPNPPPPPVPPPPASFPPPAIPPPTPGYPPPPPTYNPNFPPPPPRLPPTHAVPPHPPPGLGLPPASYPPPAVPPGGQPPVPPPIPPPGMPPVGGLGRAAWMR
Assay: biochemical
Details: not given

SMILES | IC50 [µM]
COc1ccc(Nc2nc(Nc3ccc(N4CCN(C)CC4)cn3)ncc2Cl)cc1 | 1.38
CN1CCN(c2ccc(Nc3ncc(Cl)c(Nc4ccccc4)n3)nc2)CC1 | 9.85
Cc1ccccc1Nc1nc(Nc2ccc(N3CCN(C)CC3)cn2)ncc1Cl | 0.152
COc1cccc(Nc2nc(Nc3ccc(N4CCN(C)CC4)cn3)ncc2Cl)c1 | 6.2
Cc1ccccc1Nc1nc(Nc2ccc(N3CCOCC3)cc2)ncc1Cl | 1.12
Cc1ccccc1Nc1nc(NCCc2cccnc2)ncc1Cl | > 10
Cc1ccccc1Nc1nc(NC2CC2)ncc1Cl | > 10
CN1CCN(c2ccc(Nc3ncc(Cl)c(NCCc4ccc(F)cc4)n3)nc2)CC1 | > 10
Cc1ccccc1Nc1nc(Nc2ccc(N3CCCCC3)cn2)ncc1Cl | > 10
Cc1ccccc1Nc1nc(NCc2ccccc2)ncc1Cl | > 10
Cc1cccc(Nc2nc(Nc3ccc(N4CCN(C)CC4)cn3)ncc2Cl)c1 | 0.431
Cc1ccccc1Nc1nc(Nc2cc(Cl)ccn2)ncc1Cl | > 10
CCN1CCN(c2ccc(Nc3ncc(Cl)c(Nc4ccccc4C)n3)nc2)CC1 | > 10

Organism: Homo sapiens
Assay: not given
Details: not given

SMILES | Ratio IC50
Cc1ccccc1Nc1nc(Nc2ccc(N3CCN(C)CC3)cn2)ncc1Cl | 10
